The target of this test is human LPA1 (Homo sapiens, UniProt Q92633). Put plainly: In vitro functional assay of lysophosphatidic acid receptor 1 activity (calcium flux). Conditions: B103 cells stably expressing human LPA1; Fluo-4 NW calcium flux after lysophosphatidic acid (18:1) at EC80; compounds 100 pM to 10 μM; read-out: LPA1 IC50. The format is cell-based. The method, then:
In vitro functional assay of lysophosphatidic acid receptor 1 activity
Primary compound plates were prepared in 100% DMSO (Sigma-Aldrich), secondary compound plates were prepared at 10× concentration in DiVEM (Invitrogen), and tertiary compound plates were prepared at 3x concentration in assay buffer containing HBSS (no Ca^+2/Mg^+2, Invitrogen) and 0.1% BSA (Sigma-Aldrich). Fluo-4 NW calcium assay dye (Invitrogen) was prepared as per manufacturer's recommendations in assay buffer. B103 cells stably expressing human LPA1(J. Chun lab, UCSD) were grown to confluency in DMEM media (Invitrogen) containing 10% FBS (ATCC), […] (Sigma-Aldrich) and […] Geneticin (Sigma-Aldrich), and detached with Accutase (Sigma-Aldrich) prior to assay. The freshly detached cells were resuspended in growth media and plated in black, clear-bottom 96-well plates (Costar) containing compound (i.e., secondary compound plate) at a density of 5×10^4 cells/well. Once plated, cells were left at room temperature for 30 minutes and then transferred to a 37° C., […] incubator for 24 hours. After 24 hours, the growth media was then removed and freshly prepared Fluo-4 NW calcium assay dye was added to cells. Compounds (i.e. tertiary compound plates) were then added back to the dye/cells, returned to the incubator for 30 minutes, and then kept at room temperature for an additional 30 minutes. Finally, lysophosphatidic acid (18:1) at the EC80 concentration was added and calcium flux measured using FlexStation 3 (Molecular Devices). Sigmoidal dose-response curves were generated by measuring […] over 45 sec and calculating the area under the curve. Dose response curves and IC50 values were generated using Prism (GraphPad). Compounds were tested at a final concentration range of 100 pM to 10 μM in 0.10% DMSO.
In general terms: Calcium flux is commonly read through the fluorescence of an indicator in the cells.

Sequence of human LPA1 (Q92633 whole entry): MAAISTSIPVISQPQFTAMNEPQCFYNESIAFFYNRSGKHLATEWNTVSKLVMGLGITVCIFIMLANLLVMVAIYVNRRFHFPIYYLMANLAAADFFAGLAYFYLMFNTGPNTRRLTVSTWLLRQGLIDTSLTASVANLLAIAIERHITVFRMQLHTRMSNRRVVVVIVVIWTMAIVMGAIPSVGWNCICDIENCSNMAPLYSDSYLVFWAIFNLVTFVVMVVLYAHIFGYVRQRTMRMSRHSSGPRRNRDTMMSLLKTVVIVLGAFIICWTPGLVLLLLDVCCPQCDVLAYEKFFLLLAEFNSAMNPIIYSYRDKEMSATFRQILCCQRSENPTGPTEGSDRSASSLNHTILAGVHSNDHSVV

For `CC(C)c1ccccc1C1(C(=O)Nc2ncc(Cl)cc2OC(F)F)CC(O)(C(F)(F)C(=O)O)C1` (single isomer, unassigned) [Example 55-isomer A, 2-(3-((5-chloro-3-(difluoromethoxy)pyridin-2-yl)carbamoyl)-1-hydroxy-3-(2-isopropylphenyl)cyclobutyl)-2,2-difluoroacetic acid], the IC50 (as a rule, the point on the concentration scale where inhibition reaches its midpoint) lay in the range of 10 to 100 nM.
Take `CC(C)c1ccccc1C1(C(=O)Nc2ncc(Cl)cc2OC(F)F)CC(O)(C(F)(F)C(=O)O)C1` (single isomer, unassigned) [Example 55-isomer B, 2-(3-((5-chloro-3-(difluoromethoxy)pyridin-2-yl)carbamoyl)-1-hydroxy-3-(2-isopropylphenyl)cyclobutyl)-2,2-difluoroacetic acid]: the IC50 lay within 10 to 100 nM.
In the case of `COc1ccc(NC(=O)C2(c3ccccc3C(C)C)CCC(C)(O)CC2)c(OC(F)F)n1` (single isomer, unassigned) [Example 83-isomer A, N-(2-(difluoromethoxy)-6-methoxypyridin-3-yl)-4-hydroxy-1-(2-isopropylphenyl)-4-methylcyclohexane-1-carboxamide] it was > 1000 nM; in that of `COc1ccc(NC(=O)C2(c3ccccc3C(C)C)CCC(C)(O)CC2)c(OC(F)F)n1` (single isomer, unassigned) [Example 83-isomer B, N-(2-(difluoromethoxy)-6-methoxypyridin-3-yl)-4-hydroxy-1-(2-isopropylphenyl)-4-methylcyclohexane-1-carboxamide], 10 to 100 nM; in that of `CC(C)c1ccccc1C1(C(=O)Nc2ccc(Cl)cn2)CC(O)(C(F)(F)C(=O)O)C1` (single isomer, unassigned) [Example 93-isomer A, 2-(3-((5-chloropyridin-2-yl)carbamoyl)-1-hydroxy-3-(2-isopropylphenyl)cyclobutyl)-2,2-difluoroacetic acid], 10 to 100 nM.
In the case of `CC(C)c1ccccc1C1(C(=O)Nc2ccc(Cl)cn2)CC(O)(C(F)(F)C(=O)O)C1` (single isomer, unassigned) [Example 93-isomer B, 2-(3-((5-chloropyridin-2-y1)carbamoyl)-1-hydroxy-3-(2-isopropylphenyl)cyclobutyl)-2,2-difluoroacetic acid], the IC50 lay in the range of 100 to 1000 nM.
In the case of `Cc1cc(OC(F)F)c(NC(=O)C2(c3ccccc3C(C)C)CC(O)(C(F)(F)C(=O)O)C2)cn1` (single isomer, unassigned) [Example 94-isomer A, 2-(3-((4-(difluoromethoxy)-6-methylpyridin-3-yl)carbamoyl)-1-hydroxy-3-(2-isopropylphenyl)cyclobutyl)-2,2-difluoroacetic acid] it was 100 to 1000 nM; in that of `Cc1cc(OC(F)F)c(NC(=O)C2(c3ccccc3C(C)C)CC(O)(C(F)(F)C(=O)O)C2)cn1` (single isomer, unassigned) [Example 94-isomer B, 2-(3-((4-(difluoromethoxy)-6-methylpyridin-3-yl)carbamoyl)-1-hydroxy-3-(2-isopropylphenyl)cyclobutyl)-2,2-difluoroacetic acid], 10 to 100 nM.
With `COc1cc(C)ccc1NC(=O)C1(c2ccccc2C(C)C)CNC(=O)C1` (single isomer, unassigned) [Example 102-isomer A, 3-(2-isopropylphenyl)-N-(2-methoxy-4-methylphenyl)-5-oxopyrrolidine-3-carboxamide], the IC50 was in the range of 10 to 100 nM.
Turning to `COc1cc(C)ccc1NC(=O)C1(c2ccccc2C(C)C)CNC(=O)C1` (single isomer, unassigned) [Example 102-isomer B, 3-(2-isopropylphenyl)-N-(2-methoxy-4-methylphenyl)-5-oxopyrrolidine-3-carboxamide], the IC50 is > 1000 nM.
In the case of `CC(C)c1ccccc1C1(C(=O)Nc2cccnc2OC(F)F)CC(=O)N(C)C1` (centres unmarked) [Example 2, N-(2-(difluoromethoxy)pyridin-3-yl)-3-(2-isopropylphenyl)-1-methyl-5-oxopyrrolidine-3-carboxamide] it was 100 to 1000 nM; in that of `Cc1ccc(NC(=O)C2(c3ccccc3C(C)C)CC(=O)N(C)C2)c(OC(F)F)n1` (centres unmarked) [Example 3, N-(2-(difluoromethoxy)-6-methylpyridin-3-yl)-3-(2-isopropylphenyl)-1-methyl-5-oxopyrrolidine-3-carboxamide], 10 to 100 nM; in that of `CC(C)c1ccccc1C1(C(=O)Nc2cnc(C(F)F)cc2OC(F)F)CC(=O)N(C)C1` (centres unmarked) [Example 4, N-(4-(difluoromethoxy)-6-(difluoromethyl)pyridin-3-yl)-3-(2-isopropylphenyl)-1-methyl-5-oxopyrrolidine-3-carboxamide], 100 to 1000 nM.
Take `COc1cc(OC(F)F)c(NC(=O)C2(c3ccccc3C(C)C)CC(=O)N(C)C2)cn1` (centres unmarked) [Example 5, N-(4-(difluoromethoxy)-6-methoxypyridin-3-yl)-3-(2-isopropylphenyl)-1-methyl-5-oxopyrrolidine-3-carboxamide]: the IC50 is > 1000 nM.
In the case of `Cc1cc(OC(F)F)c(NC(=O)C2(c3ccccc3C(C)C)CC(=O)N(C)C2)cn1` (centres unmarked) [Example 6, N-(4-(difluoromethoxy)-6-methylpyridin-3-yl)-3-(2-isopropylphenyl)-1-methyl-5-oxopyrrolidine-3-carboxamide] it was 100 to 1000 nM; in that of `Cc1ccc(NC(=O)C2(c3ccccc3C(C)C)CNC(=O)C2)c(OC(F)F)n1` (centres unmarked) [Example 9, N-(2-(difluoromethoxy)-6-methylpyridin-3-yl)-3-(2-isopropylphenyl)-5-oxopyrrolidine-3-carboxamide], 10 to 100 nM.
As for `CC(C)c1ccccc1C1(C(=O)Nc2ncc(Cl)cc2OC(F)F)CNC(=O)C1` (centres unmarked) [Example 10, N-(5-chloro-3-(difluoromethoxy)pyridin-2-yl)-3-(2-isopropylphenyl)-5-oxopyrrolidine-3-carboxamide], the IC50 was in the range of 10 to 100 nM.
In the case of `CCOCN1CC(C(=O)Nc2ncc(Cl)cc2OC(F)F)(c2ccccc2C(C)C)CC1=O` (centres unmarked) [Example 11, N-(5-chloro-3-(difluoromethoxy)pyridin-2-yl)-1-(ethoxymethyl)-3-(2-isopropylphenyl)-5-oxopyrrolidine-3-carboxamide] it was 100 to 1000 nM; in that of `COc1nc(NC(=O)C2(c3ccccc3C(C)C)CNC(=O)C2)c(OC(F)F)cc1Cl` (centres unmarked) [Example 12, N-(5-chloro-3-(difluoromethoxy)-6-methoxypyridin-2-yl)-3-(2-isopropylphenyl)-5-oxopyrrolidine-3-carboxamide], > 1000 nM; in that of `Cc1ccc(NC(=O)C2(c3ccccc3C(C)C)CCOCC2)c(OC(F)F)n1` [Example 13, N-(2-(difluoromethoxy)-6-methylpyridin-3-yl)-4-(2-isopropylphenyl)tetrahydro-2H-pyran-4-carboxamide], 10 to 100 nM.
In the case of `CC(C)c1ccccc1C1(C(=O)Nc2ccc(Cl)cc2OC(F)F)CCOCC1` [Example 14, N-(4-chloro-2-(difluoromethoxy)phenyl)-4-(2-isopropylphenyl)tetrahydro-2H-pyran-4-carboxamide] it was 100 to 1000 nM; in that of `COc1ccc(NC(=O)C2(c3ccccc3C(C)C)COC2)c(OC(F)F)n1` [Example 15, N-(2-(difluoromethoxy)-6-methoxypyridin-3-yl)-3-(2-isopropylphenyl)oxetane-3-carboxamide], < 10 nM; in that of `CC(C)c1ccccc1C1(C(=O)Nc2ccc(Br)cc2OC(F)F)COC1` [Example 16, N-(4-bromo-2-(difluoromethoxy)phenyl)-3-(2-isopropylphenyl)oxetane-3-carboxamide], < 10 nM.
Turning to `Cc1ccc(NC(=O)C2(c3ccccc3C(C)C)COC2)c(OC(F)F)n1` [Example 17, N-(2-(difluoromethoxy)-6-methylpyridin-3-yl)-3-(2-isopropylphenyl)oxetane-3-carboxamide], the IC50 lay in the range of 10 to 100 nM.
Consider `COc1ccc(NC(=O)C2(c3ccccc3C(C)C)COC2)c(OC)n1` [Example 18, N-(2,6-dimethoxypyridin-3-yl)-3-(2-isopropylphenyl)oxetane-3-carboxamide], for which the IC50 lay in the range of 100 to 1000 nM.
Consider `COc1cc(Cl)ncc1NC(=O)C1(c2ccccc2C(C)C)COC1` [Example 19, N-(6-chloro-4-methoxypyridin-3-yl)-3-(2-isopropylphenyl)oxetane-3-carboxamide], for which the IC50 lay within 10 to 100 nM.
On to `COc1cc(Cl)cnc1NC(=O)C1(c2ccccc2C(C)C)COC1` [Example 20, N-(5-chloro-3-methoxypyridin-2-yl)-3-(2-isopropylphenyl)oxetane-3-carboxamide], for which the IC50 was > 1000 nM.
As to `COc1cc(Cl)ccc1NC(=O)C1(c2ccccc2C(C)C)COC1` [Example 21, N-(4-chloro-2-methoxyphenyl)-3-(2-isopropylphenyl)oxetane-3-carboxamide], the IC50 was in the range of 10 to 100 nM.
As for `CC(C)c1ccccc1C1(C(=O)Nc2ncc(Cl)cc2OC(F)F)COC1` [Example 22, N-(5-chloro-3-(difluoromethoxy)pyridin-2-yl)-3-(2-isopropylphenyl)oxetane-3-carboxamide], the 50% inhibitory concentration (IC50) fell in the range of 10 to 100 nM.
